Experimental data: article PMC11506171, “Quercetin as a Modulator of PTPN22 Phosphomonoesterase Activity: A Biochemical and Computational Evaluation” (Current Issues in Molecular Biology, 2024)

Columns and labels:
Format in all cases: biochemical
[1] = target: T1, protein tyrosine phosphatase nonreceptor type 22 (PTPN22) (Homo sapiens, UniProt Q9Y2R2); assay: pNPP phosphatase assay, single concentration screen at […]; conditions: read-out: % inhibition at 50 μM
T1 construct: catalytic domain, amino acids 1 to 303
T1 sequence (Q9Y2R2 1-303): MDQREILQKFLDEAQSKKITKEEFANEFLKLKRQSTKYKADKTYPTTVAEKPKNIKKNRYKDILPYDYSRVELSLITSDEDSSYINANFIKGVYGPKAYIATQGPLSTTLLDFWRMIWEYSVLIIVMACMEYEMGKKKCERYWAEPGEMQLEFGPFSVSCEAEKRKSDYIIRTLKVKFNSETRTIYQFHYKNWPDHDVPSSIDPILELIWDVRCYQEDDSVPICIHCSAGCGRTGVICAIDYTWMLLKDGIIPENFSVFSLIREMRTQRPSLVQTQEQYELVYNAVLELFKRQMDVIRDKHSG

[2] = target: T1, protein tyrosine phosphatase nonreceptor type 22 (PTPN22); assay: pNPP phosphatase assay with recombinant enzyme, reference inhibitor
[3] = target: T1, protein tyrosine phosphatase nonreceptor type 22 (PTPN22); assay: pNPP phosphatase assay with recombinant enzyme; Lineweaver-Burk and Dixon plots (Ki […])

Compound `O=C1C=C(O)C(=O)c2ccccc21` [2HNQ] has an inhibition at 50 µM [1] of 62%.
`O=C1C=CC(=O)c2c(O)cccc21` [5HNQ] gave an inhibition at 50 µM [1] of 61%.
With `C[C@H]1[C@H](C)CC[C@]2(C(=O)O)CC[C@]3(C)C(=CC[C@@H]4[C@@]5(C)CC[C@H](O)C(C)(C)[C@@H]5CC[C@]43C)[C@H]12` [ursolic acid] the IC50 [2] was 37.2 µM.
`CO[C@H]1C[C@H](O[C@@H]2/C(C)=C/C[C@@H]3C[C@@H](C[C@]4(CC[C@H](C)[C@@H](C5CCCCC5)O4)O3)OC(=O)[C@@H]3C=C(C)/C(=N/O)[C@H]4OC/C(=C\C=C\[C@@H]2C)[C@]43O)O[C@@H](C)[C@@H]1O` [selamectin] was tested, and the inhibition at 50 µM [1] was 54%.
`O=c1c(O)c(-c2ccc(O)c(O)c2)oc2cc(O)cc(O)c12` [quercetin] was tested, and the IC50 [3] was 29.6 µM.
In the case of `CO[C@H]1C[C@H](O[C@H]2[C@H](C)O[C@@H](O[C@@H]3/C(C)=C/C[C@@H]4C[C@@H](C[C@]5(C=C[C@H](C)[C@@H](C6CCCCC6)O5)O4)OC(=O)[C@@H]4C=C(C)[C@@H](O)[C@H]5OC/C(=C\C=C\[C@@H]3C)[C@]54O)C[C@@H]2OC)O[C@@H](C)[C@@H]1O` [doramectin], the inhibition at 50 µM [1] is reported as 50%.
